According to patent US20230107216A1, “PANTETHEINE DERIVATIVES AND USES THEREOF” (Comet Therapeutics, Inc., priority 2018, published 2023):
Like-named read-outs stand apart in the source and are kept apart here.

Columns and labels:
[1] = tested on: Propionic Acidemia (PA) primary fibroblasts GM00371; assay: Mitochondrial respiration, XFe96 Extracellular Flux Analyzer (OCR/ECAR), PA fibroblasts GM00371; format: cell-based; details: Homo sapiens, Fibroblast
HepG2 cells = assay: Glucose uptake (Glucose Uptake-Glo); format: cell-based; details: Homo sapiens, read-out: % increase in Glucose Uptake
[2] = tested on: Venular Endothelial cells (HUVEC) (3C system); assay: BioMAP 3C system (IL-1β, TNFα, IFNγ); format: cell-based, human; details: 10 uM; procedure of Example 825
Method: (§1) The BioMAP platform (BioMAP® Diversity PLUS® Panel from Eurofins) is an in vitro phenotypic profiling technology that screened the compounds of the present disclosure (hereafter indicated as test agents) in human primary cell-based systems modelling complex tissue and disease states. The BioMAP assays were performed using the Eurofin's BioMAP Technology Platform as (see references 1 to 13 in the example 824 section) to model different diseases on primary cell-based model systems. These systems consisted of either single primary cell types or co-culture cells. Adherent cell types were cultured or co-cultured in 96 or 384-well plates until confluence followed by the addition of compounds prepared in DMSO at a final concentration of ≤0.1%. In each cell-based system, primary cells from heathy donors (2-6 donors) were pooled and treated with compounds at 1 and 10 μM dose 1h prior to stimulation and remain in culture as indicated in Example 825, Example 826, Example 827, Example 828, Example 829, Example 830, Example 831, Example 832, Example 833, Example 834, Example 835, Example 836 and Example 837. For on the BioMAP® Diversity PLUS® Panel, please see the following references, which are incorporate herein.
Following the general procedure as described in Example 824, Venular Endothelial cells (HUVEC) (3C system) were treated with IL-1β, TNFα, IFNγ for 24h to model Th1 driven cardiovascular and chronic inflammation diseases in the presence or absence of the compounds. Biomarker read out were; Tissue Factor, ICAM-1, E-selectin, uPAR (CD87), IL-8, MIG, HLA-DR, proliferation and SRB (Sulfo-rhodamine i.e. staining for protein content).

[3] = tested on: Venular Endothelial cells (HUVEC) (4H system); assay: BioMAP 4H system (IL-4 and histamine); format: cell-based, human; details: 10 uM; procedure of Example 826
[4] = tested on: Peripheral blood mononuclear cells co-cultured with venular endothelial cells (HUVEC) (LPS system); assay: BioMAP LPS system; format: cell-based, human; details: procedure of Example 827
[5] = tested on: Bronchial epithelial cells co-cultured with dermal fibroblast (BF4T system); assay: BioMAP BF4T system (TNFα and IL-4); format: cell-based, human; details: 10 uM, procedure of Example 830
[6] = tested on: Bronchial epithelial cells (BE3C system); assay: BioMAP BE3C system (IL-1β, TNFα, IFNγ); format: cell-based, human; details: Homo sapiens, Epithelial cell, 24 h; 10 uM; procedure of Example 831; read-out: % decrease in MMP-1
[7] = tested on: Coronary artery smooth muscle cells (CASM3C system); assay: BioMAP CASM3C system (IL-1β, TNFα, IFNγ); format: cell-based, human
[8] = tested on: Dermal fibroblasts (HDF3CGF system); assay: BioMAP HDF3CGF system (IL-1β, TNFα, IFNγ, EGF, bFGF, PDGF-BB); format: cell-based, human; details: Homo sapiens, Fibroblast, 72 h; 10 uM; read-out: % increase in 72 Hour Proliferation
[9] = tested on: Keratinocytes co-cultured with dermal fibroblast (KF3CT system); assay: BioMAP KF3CT system (IL-1β, TNFα, IFNγ, TGFβ); format: cell-based, human
Method: as §1
Following the general procedure as described in Example 824, Keratinocytes were co-cultured with dermal fibroblast (KF3CT system) and treated with IL-1β, TNFα, IFNγ and TGFβ for 24h in the presence or absence of the compounds to model psoriasis, dermatitis and skin biology. Biomarkers read out were; MCP-1, ICAM-1, IP-10, IL-8, MIG, IL-1α, MMP-9, PAI-1, SRB, TIMP-2, uPA.

[10] = tested on: Peripheral blood mononuclear cells co-cultured with B-cells (BT system)
[11] = tested on: Peripheral blood mononuclear cells co-cultured with B-cells (BT system); assay: cells; details: Homo sapiens, 72 h, read-out: % decrease in sIL-17
[12] = tested on: primary fibroblasts (healthy controls and PA, MMA, BCKDK, PDH, VLCAD, LS, PC, GA, VLCFA, KSS, FXN, HD); assay: Measurement of ROS (H2DCFDA) in primary fibroblasts; format: cell-based, human; details: Homo sapiens, procedure Example 812, Assay Condition C
How it was run: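 Patient and healthy-control primary fibroblasts switched to supplemented DMEM 24 h before assay, then treated with compound (10 μM) plus H2DCFDA (22 μM) for 2 h (PA, MMA lines) or 24 h (other lines). Kinetic fluorescence at 492/527 nm over 60 min; only live cells analysed.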

[13] = tested on: Subnormal activation of pyruvate dehydrogenase complex (PDH) primary fibroblasts GM01503 (GM1503A); assay: Total NAD+ + NADH and NAD+ (NAD/NADH-Glo), PDH fibroblasts GM01503; format: cell-based; details: Homo sapiens, Fibroblast, PDH GM1503A P10, assay condition A, 24h, read-out: Increase in Total NAD+ + NADH
Method: (§2) Primary adherent fibroblasts were cultured in minimum essential medium (MEM) (Gibco, 25030081) supplemented with 2 mM L-Glutamine (Gibco, 25030081), 15% fetal bovine serum (FBS) (Gibco, 26400044) and 1% penicillin/streptomycin (Gibco, 5140122) at 37° C. and 5% CO2. Cells were collected for either passaging or experiment at ˜70-80% confluence. Cells were obtained by trypsinization and seeded in cell culture microplates either white plate (Thermo Fisher Scientific, 152028) for luminescent measurement or black plate (Thermo Fisher Scientific, 165305) for fluorescent based read out for different assays listed below. Cells were obtained by trypsinization and […] were seeded and allowed to adhere for 16-18 hours to have confluency around 70-80% in the cell well with culture media. After 24 hours prior to measurements (37° C., 5% CO2) media was changed to Dulbecco's Modified Eagle Medium (DMEM, Agilent Seahorse cat #103575-100) with the appropriate supplements as stated below.
(§3) Primary fibroblasts assayed were Propionic Acidemia (PA) (GM03590 Coriell Institute for Medical Research, Tsi 6337 Trans-Hit Bio), Methylmalonic Acidemia (MMA) (Tsi 5224 Trans-Hit Bio), Subnormal activation of pyruvate dehydrogenase complex (PDH) (GM01503 Coriell Institute for Medical Research), Very long-chain acyl-CoA dehydrogenase (VLCAD) (GM17475), Leigh Syndrome (LS) (GM03672, GM13411 Coriell Institute for Medical Research), Pyruvate Carboxylase Deficiency (PC) (GM00444 Coriell Institute for Medical Research). 10 μM of Compounds were added for 2 hours in PA, MMA lines and for 24h for the other fibroblast lines.
(§4) Assay was performed according to manufacturer instructions (NAD/NADH-Glo Assay Promega, G9072). The NAD/NADH-Glo Assay is a bioluminescent assay for detecting total oxidized and reduced nicotinamide adenine dinucleotides (NAD+ and NADH, respectively) from which ratio of NAD/NADH can be calculated. Briefly, for every assay a 12-point standard curve was prepared ranging from 400 nM to 0.625 nM. Media was removed and replaced with 50 μl of PBS for both assays.
(§5) For individual NAD+ and NADH measurement, 50 μl of 1% DTAB (Sigma Cat #D5047) (cell lysis reagent) in 0.2N NaOH was added to the plate and a total 100 μl of lysate was split into two plates with 50 μl each. 25 μl of 0.4N HCl were added to the NAD+ plate and both NAD+ and NADH plate were heated at 60° C. for 15 minutes. The acid and heat treatment destroyed NADH allowing individual NAD+ measurement while heating in basic conditions destroys NAD+ allowed individual NADH measurements. The plates were allowed to come to room temperature for 10 minutes and Trizma base (Sigma, T1699) was added to the NAD+ plate to neutralize the acid and HCl Trizma hydrochloride (Sigma, T2694) was added to the NADH plate. The NADNADH glo reagent was prepared by adding: 625 μl of NAD cycling substrate, 125 μl of reductase, 125 μl of reductase substrate, 125 μl NAD cycling enzyme to total of the 25 ml of NAD GLO reagent. 1:1 ratio of total volume of reagent was added to the individual NAD+, NADH measurement (total 100 μl) and 50 μl for total NAD/NAH measurement. Luminescence was read between 30-60 minutes within the linear range.
(§6) A total dead cell count was performed as described in Example 817 and only alive cells were used for analysis.

[14] = tested on: Very long-chain acyl-CoA dehydrogenase (VLCAD) primary fibroblasts GM17475; assay: Total NAD+ + NADH and NAD+ (NAD/NADH-Glo), VLCAD fibroblasts GM17475; format: cell-based; details: Homo sapiens, Fibroblast, VLCAD GM17475 P10, assay condition A, 24h, read-out: Increase in Total NAD+ + NADH
Method: as §2, §3, §4, §5, §6

COC(=O)CCC(=O)SCCNC(=O)CCNC(=O)[C@H](OC(C)=O)C(C)(C)CO [Compound 213, methyl 4-[(2-[3-[(2R)-2-(acetyloxy)-4-hydroxy-3,3-dimethylbutanamido]propanamido]ethyl)sulfanyl]-4-oxobutanoate]
≥ 20%: inhibition at 10 µM ([4]; Homo sapiens, HUVEC, 24 h, read-out: % decrease in IL-1α) | inhibition at 10 µM ([7]; Homo sapiens, 24 h, 10 uM, read-out: % decrease in Thrombomodulin) | inhibition at 1 µM [11]
≥10%: % decrease in IL-8 [2] | % decrease in MCP-1 [3] | % decrease in M-CSF ([4]; 1 uM) | % decrease in MMP-9 [5] | % decrease in HLA-DR ([7]; 1 uM) | % decrease in Tissue Factor ([7]; 1 uM) | % decrease in M-CSF ([7]; 1 uM, procedure of Example 832) | % decrease in VCAM-1 ([7]; 1 uM, procedure of Example 832) | % decrease in CXCL9 ([7]; 10 uM) | % decrease in MMP-9 ([9]; 1 uM) | % decrease in MCP-1 ([9]; 10 uM, procedure of 834) | % decrease in sIL-2 ([10]; 1 uM, procedure of Example 829) | % decrease in sTNFα ([10]; 1 uM, procedure of Example 829) | % decrease in PBMC cytotoxicity ([10]; human, 72 h, 1 µM)
≥ 10%: activation at 10 µM ([1]; assay condition A (10 mM glucose, 2 mM L-glutamine, 1 mM pyruvate, 10% FBS), 10 μM, read-out: Increase in Spare Capacity AUC) | activation at 50 µM ([1]; assay condition D (1 mM glucose, 10% FBS), read-out: Increase in Spare Capacity AUC) | inhibition at 1 µM ([4]; Homo sapiens, HUVEC, 24 h, 1 uM, read-out: % decrease in IL-8) | inhibition at 10 µM ([4]; Homo sapiens, HUVEC, 24 h, read-out: % decrease in TissueFactor) | activation at 10 µM ([5]; Homo sapiens, 24 h, read-out: % increase in VCAM-1) | inhibition at 10 µM [6] | activation at 10 µM [8]
≥ 30%: activation at 50 µM (HepG2 cells; 50 uM)

CC(=O)C(C(C)=O)C(=O)SCCNC(=O)CCNC(=O)[C@H](O)C(C)(C)CO [Compound 397, (2R)—N-[2-([2-[(2-acetyl-3-oxobutanoyl)sulfanyl]ethyl]arbamoyl)ethyl]-2,4-dihydroxy-3,3-dimethylbutanamide]
≥ 20%: activation at 10 µM (HepG2 cells; 10 uM)
≥ 30%: inhibition at 10 µM ([12]; Fibroblast, PDH GM01503, read-out: Decreased ROS by at least 30%) | inhibition at 10 µM ([12]; FXN GM04078, read-out: Decreased ROS by at least 30%)
≥ 10%: activation at 50 µM ([1]; assay condition C (10 mM glucose, 10% FBS), read-out: Increase in Maximal Respiratory Capacity AUC) | inhibition at 10 µM ([12]; Fibroblast, PDH GM01503, read-out: Decreased ROS by at least 10%) | activation at 10 µM [13] | activation at 10 µM [14]
